# Reference: the kinase profiling compilation of Christmann-Franck et al. (2016)
# Tests used:
# Test in all cases: radiometric filter-binding kinase assay
# BRSK1 (human) = BRSK1 (human) (UniProt Q8TDC3)
# BTK (human) = BTK (human) (UniProt Q06187)
# CAMKK2 (human) = CAMKK2 (human) (UniProt Q96RR4)
# CDK2 CCNA2 (human) = CDK2 CCNA2 (human) (UniProt P20248+P24941)
# CSK (human) = CSK (human) (UniProt P41240)
# CaMK1 (human) = CaMK1 (human) (UniProt Q14012)
# DYRK2 (human) = DYRK2 (human) (UniProt Q92630)
# EPHA2 (human) = EPHA2 (human) (UniProt P29317)
# EPHA4 (human) = EPHA4 (human) (UniProt P54764)
# EPHB2 (human) = EPHB2 (human) (UniProt P29323)
# ERBB4 (human) = ERBB4 (human) (UniProt Q15303)
# HIPK3 (human) = HIPK3 (human) (UniProt Q9H422)
# INSR (human) = INSR (human) (UniProt P06213)
# INSRR (human) = INSRR (human) (UniProt P14616)
# JAK2 JH1 JH2 (human) = JAK2 JH1 JH2 (human) (UniProt O60674)
# LCK (mouse) = conditions: accession and sequence are those of the human protein
# MAP2K1 (human) = MAP2K1 (human) (UniProt Q02750)
# MAPK15 (human) = MAPK15 (human) (UniProt Q8TD08)
# MAPKAPK2 (human) = MAPKAPK2 (human) (UniProt P49137)
# MARK1 (human) = MARK1 (human) (UniProt Q9P0L2)
# MARK2 (human) = MARK2 (human) (UniProt Q7KZI7)
# MINK1 (human) = MINK1 (human) (UniProt Q8N4C8)
# MKNK1 (human) = MKNK1 (human) (UniProt Q9BUB5)
# MST4 (human) = MST4 (human) (UniProt Q9P289)
# NEK2 (human) = NEK2 (human) (UniProt P51955)
# NEK6 (human) = NEK6 (human) (UniProt Q9HC98)
# NUAK1 (human) = NUAK1 (human) (UniProt O60285)
# PAK7 (human) = PAK7 (human) (UniProt Q9P286)
# PHKG1 (human) = PHKG1 (human) (UniProt Q16816)
# PRKAA1 or PRKAA2 (rat) = conditions: accession and sequence are those of the human protein
# PRKACA (human) = PRKACA (human) (UniProt P17612)
# PRKCA (human) = PRKCA (human) (UniProt P17252)
# RIPK2 (human) = RIPK2 (human) (UniProt O43353)
# RPS6KA5 KD1 KD2 (human) = RPS6KA5 KD1 KD2 (human) (UniProt O75582)
# SRPK1 (human) = SRPK1 (human) (UniProt Q96SB4)
# Sequence of RPS6KA5 KD1 KD2 (human) (O75582 whole entry, looked up): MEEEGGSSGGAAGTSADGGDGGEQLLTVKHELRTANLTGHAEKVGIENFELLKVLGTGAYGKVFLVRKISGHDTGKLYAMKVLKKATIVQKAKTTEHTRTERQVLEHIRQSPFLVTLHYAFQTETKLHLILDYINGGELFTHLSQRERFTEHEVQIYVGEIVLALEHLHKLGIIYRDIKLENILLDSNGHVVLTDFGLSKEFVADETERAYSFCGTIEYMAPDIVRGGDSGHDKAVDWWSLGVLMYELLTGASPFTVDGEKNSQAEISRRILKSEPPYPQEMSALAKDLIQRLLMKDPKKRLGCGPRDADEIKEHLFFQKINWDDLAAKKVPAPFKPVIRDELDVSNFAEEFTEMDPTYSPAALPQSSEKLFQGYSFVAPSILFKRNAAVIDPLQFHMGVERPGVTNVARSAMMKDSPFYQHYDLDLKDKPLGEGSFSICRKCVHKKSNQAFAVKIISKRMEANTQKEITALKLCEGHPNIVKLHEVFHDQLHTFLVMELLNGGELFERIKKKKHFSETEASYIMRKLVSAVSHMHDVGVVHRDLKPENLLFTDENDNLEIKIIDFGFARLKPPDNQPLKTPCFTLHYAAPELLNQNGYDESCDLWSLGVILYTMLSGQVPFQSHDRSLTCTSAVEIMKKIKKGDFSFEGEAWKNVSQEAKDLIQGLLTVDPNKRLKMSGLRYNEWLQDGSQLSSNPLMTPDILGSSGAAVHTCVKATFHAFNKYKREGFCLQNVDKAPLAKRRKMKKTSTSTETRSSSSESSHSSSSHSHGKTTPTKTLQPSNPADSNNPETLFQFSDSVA
# Sequence of PAK7 (human) (Q9P286 whole entry, looked up): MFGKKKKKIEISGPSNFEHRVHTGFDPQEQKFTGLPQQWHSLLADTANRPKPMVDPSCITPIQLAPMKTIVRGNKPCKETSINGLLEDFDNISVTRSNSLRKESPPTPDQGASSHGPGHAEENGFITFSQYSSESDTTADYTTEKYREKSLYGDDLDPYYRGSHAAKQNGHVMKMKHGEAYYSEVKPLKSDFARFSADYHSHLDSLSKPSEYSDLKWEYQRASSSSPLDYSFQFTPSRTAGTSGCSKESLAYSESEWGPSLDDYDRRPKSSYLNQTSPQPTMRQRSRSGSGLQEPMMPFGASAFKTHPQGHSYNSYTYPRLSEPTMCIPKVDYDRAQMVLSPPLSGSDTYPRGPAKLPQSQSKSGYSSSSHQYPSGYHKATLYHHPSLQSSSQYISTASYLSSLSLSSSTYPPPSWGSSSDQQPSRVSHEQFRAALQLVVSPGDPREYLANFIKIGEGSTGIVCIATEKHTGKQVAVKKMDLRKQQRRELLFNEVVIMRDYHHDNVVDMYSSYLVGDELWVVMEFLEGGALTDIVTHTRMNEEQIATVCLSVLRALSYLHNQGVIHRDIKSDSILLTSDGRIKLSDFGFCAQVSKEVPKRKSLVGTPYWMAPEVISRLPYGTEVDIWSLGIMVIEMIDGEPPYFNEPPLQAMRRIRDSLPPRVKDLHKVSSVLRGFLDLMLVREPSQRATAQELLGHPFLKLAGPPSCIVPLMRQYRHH
# Sequence of HIPK3 (human) (Q9H422 whole entry, looked up): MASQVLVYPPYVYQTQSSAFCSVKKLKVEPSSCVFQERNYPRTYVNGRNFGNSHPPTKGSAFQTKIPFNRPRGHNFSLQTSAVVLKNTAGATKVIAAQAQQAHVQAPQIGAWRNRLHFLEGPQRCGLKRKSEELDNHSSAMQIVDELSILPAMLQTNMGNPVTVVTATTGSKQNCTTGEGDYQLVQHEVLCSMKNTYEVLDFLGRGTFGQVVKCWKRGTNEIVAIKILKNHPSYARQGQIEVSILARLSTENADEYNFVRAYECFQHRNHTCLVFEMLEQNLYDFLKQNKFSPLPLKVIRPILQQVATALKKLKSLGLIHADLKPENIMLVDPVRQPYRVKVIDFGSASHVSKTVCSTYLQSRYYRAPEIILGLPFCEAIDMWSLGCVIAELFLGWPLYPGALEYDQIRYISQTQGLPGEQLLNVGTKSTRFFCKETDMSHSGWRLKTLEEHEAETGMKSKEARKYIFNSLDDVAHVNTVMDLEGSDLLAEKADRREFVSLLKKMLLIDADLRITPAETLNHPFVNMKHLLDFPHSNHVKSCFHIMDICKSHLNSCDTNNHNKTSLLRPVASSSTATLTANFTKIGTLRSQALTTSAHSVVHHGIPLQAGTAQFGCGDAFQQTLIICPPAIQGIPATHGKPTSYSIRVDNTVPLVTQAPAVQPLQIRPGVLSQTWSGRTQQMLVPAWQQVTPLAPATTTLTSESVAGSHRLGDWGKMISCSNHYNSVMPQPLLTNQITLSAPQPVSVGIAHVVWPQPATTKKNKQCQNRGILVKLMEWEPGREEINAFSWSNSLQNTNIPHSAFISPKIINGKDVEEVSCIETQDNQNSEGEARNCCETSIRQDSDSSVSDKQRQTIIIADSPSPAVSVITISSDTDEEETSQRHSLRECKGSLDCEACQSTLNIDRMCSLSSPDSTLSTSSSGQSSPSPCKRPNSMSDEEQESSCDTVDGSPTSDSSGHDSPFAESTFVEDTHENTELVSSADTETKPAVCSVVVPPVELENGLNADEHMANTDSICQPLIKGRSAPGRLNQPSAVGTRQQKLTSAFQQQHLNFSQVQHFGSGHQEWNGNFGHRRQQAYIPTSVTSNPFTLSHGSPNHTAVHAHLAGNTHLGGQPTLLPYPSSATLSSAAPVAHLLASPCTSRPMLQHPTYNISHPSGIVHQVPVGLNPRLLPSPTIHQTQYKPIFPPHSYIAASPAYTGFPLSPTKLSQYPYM
# Sequence of NEK2 (human) (P51955 whole entry, looked up): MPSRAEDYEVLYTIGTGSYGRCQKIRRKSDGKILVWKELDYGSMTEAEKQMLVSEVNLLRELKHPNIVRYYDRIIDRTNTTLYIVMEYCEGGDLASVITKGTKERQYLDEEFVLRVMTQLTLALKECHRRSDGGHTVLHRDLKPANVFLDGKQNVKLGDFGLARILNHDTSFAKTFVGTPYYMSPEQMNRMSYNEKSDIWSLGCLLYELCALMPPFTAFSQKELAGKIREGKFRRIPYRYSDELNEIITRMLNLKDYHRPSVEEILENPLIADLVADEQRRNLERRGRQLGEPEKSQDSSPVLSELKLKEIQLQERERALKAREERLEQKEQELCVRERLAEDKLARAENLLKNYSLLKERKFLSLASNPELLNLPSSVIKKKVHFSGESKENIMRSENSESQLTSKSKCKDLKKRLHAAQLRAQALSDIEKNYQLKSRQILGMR
# Sequence of MKNK1 (human) (Q9BUB5 whole entry, looked up): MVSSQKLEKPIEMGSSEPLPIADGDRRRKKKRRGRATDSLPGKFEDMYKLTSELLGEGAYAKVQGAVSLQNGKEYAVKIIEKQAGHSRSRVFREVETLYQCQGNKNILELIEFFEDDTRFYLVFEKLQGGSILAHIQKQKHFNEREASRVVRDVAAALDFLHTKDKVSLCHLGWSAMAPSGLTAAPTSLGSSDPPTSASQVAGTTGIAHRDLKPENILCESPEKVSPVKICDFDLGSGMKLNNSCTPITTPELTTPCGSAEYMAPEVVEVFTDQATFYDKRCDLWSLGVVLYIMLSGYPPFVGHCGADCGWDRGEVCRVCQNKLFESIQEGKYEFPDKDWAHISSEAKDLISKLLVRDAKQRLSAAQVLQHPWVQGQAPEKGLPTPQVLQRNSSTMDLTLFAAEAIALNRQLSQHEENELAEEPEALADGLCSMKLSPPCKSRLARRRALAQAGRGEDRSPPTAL
# Sequence of CAMKK2 (human) (Q96RR4 whole entry, looked up): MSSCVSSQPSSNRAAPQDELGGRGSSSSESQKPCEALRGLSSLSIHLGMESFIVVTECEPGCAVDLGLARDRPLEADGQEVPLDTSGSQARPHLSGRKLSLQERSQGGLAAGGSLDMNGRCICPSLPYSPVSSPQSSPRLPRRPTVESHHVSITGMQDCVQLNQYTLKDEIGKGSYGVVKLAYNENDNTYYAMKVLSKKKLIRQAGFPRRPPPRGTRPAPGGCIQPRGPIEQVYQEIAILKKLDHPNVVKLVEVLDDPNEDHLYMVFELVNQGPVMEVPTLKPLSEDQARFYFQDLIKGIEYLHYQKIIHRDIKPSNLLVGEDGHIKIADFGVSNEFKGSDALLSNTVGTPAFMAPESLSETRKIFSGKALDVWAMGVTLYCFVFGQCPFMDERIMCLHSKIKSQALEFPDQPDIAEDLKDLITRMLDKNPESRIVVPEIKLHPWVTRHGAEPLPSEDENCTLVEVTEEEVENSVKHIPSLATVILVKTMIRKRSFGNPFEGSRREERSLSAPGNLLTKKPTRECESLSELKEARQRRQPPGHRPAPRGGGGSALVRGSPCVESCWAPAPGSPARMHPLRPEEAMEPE
compound,measurement,setting,value
O=C(Nc1ccccc1-c1cn2c(CN3CCNCC3)csc2n1)c1cnc2ccccc2n1,residual activity,BRSK1 (human); compound 1.0 µM,94%
same,residual activity,BRSK1 (human); compound 10.0 µM,87%
same,residual activity,BTK (human); compound 0.1 µM,88%
same,residual activity,BTK (human); compound 1.0 µM,99%
same,residual activity,BTK (human); compound 10.0 µM,79%
same,residual activity,CAMKK2 (human); compound 0.1 µM,92%
same,residual activity,CAMKK2 (human); compound 1.0 µM,83%
same,residual activity,CAMKK2 (human); compound 10.0 µM,44%
same,residual activity,CDK2 CCNA2 (human); compound 0.1 µM,88%
same,residual activity,CDK2 CCNA2 (human); compound 1.0 µM,100%
same,residual activity,CDK2 CCNA2 (human); compound 10.0 µM,115%
same,residual activity,CSK (human); compound 0.1 µM,97%
same,residual activity,CSK (human); compound 1.0 µM,85%
same,residual activity,CSK (human); compound 10.0 µM,97%
same,residual activity,CaMK1 (human); compound 0.1 µM,109%
same,residual activity,CaMK1 (human); compound 1.0 µM,83%
same,residual activity,CaMK1 (human); compound 10.0 µM,22%
same,residual activity,DYRK2 (human); compound 0.1 µM,98%
same,residual activity,DYRK2 (human); compound 1.0 µM,94%
same,residual activity,DYRK2 (human); compound 10.0 µM,94%
same,residual activity,EPHA2 (human); compound 0.1 µM,97%
same,residual activity,EPHA2 (human); compound 1.0 µM,99%
same,residual activity,EPHA2 (human); compound 10.0 µM,84%
same,residual activity,EPHA4 (human); compound 1.0 µM,78%
same,residual activity,EPHA4 (human); compound 10.0 µM,76%
same,residual activity,EPHB2 (human); compound 1.0 µM,82%
same,residual activity,EPHB2 (human); compound 10.0 µM,84%
same,residual activity,ERBB4 (human); compound 1.0 µM,80%
same,residual activity,ERBB4 (human); compound 10.0 µM,86%
same,residual activity,HIPK3 (human); compound 0.1 µM,88%
same,residual activity,HIPK3 (human); compound 1.0 µM,92%
same,residual activity,HIPK3 (human); compound 10.0 µM,73%
same,residual activity,INSR (human); compound 0.1 µM,127%
same,residual activity,INSR (human); compound 1.0 µM,101%
same,residual activity,INSR (human); compound 10.0 µM,100%
same,residual activity,INSRR (human); compound 0.1 µM,73%
same,residual activity,INSRR (human); compound 1.0 µM,77%
same,residual activity,INSRR (human); compound 10.0 µM,53%
same,residual activity,JAK2 JH1 JH2 (human); compound 1.0 µM,90%
same,residual activity,JAK2 JH1 JH2 (human); compound 10.0 µM,86%
same,residual activity,LCK (mouse); compound 0.1 µM,88%
same,residual activity,LCK (mouse); compound 1.0 µM,106%
same,residual activity,LCK (mouse); compound 10.0 µM,58%
same,residual activity,MAP2K1 (human); compound 0.1 µM,91%
same,residual activity,MAP2K1 (human); compound 1.0 µM,95%
same,residual activity,MAP2K1 (human); compound 10.0 µM,87%
same,residual activity,MAPK15 (human); compound 0.1 µM,81%
same,residual activity,MAPK15 (human); compound 1.0 µM,96%
same,residual activity,MAPK15 (human); compound 10.0 µM,86%
same,residual activity,MAPKAPK2 (human); compound 0.1 µM,90%
same,residual activity,MAPKAPK2 (human); compound 1.0 µM,92%
same,residual activity,MAPKAPK2 (human); compound 10.0 µM,59%
same,residual activity,MARK1 (human); compound 1.0 µM,85%
same,residual activity,MARK1 (human); compound 10.0 µM,74%
same,residual activity,MARK2 (human); compound 1.0 µM,106%
same,residual activity,MARK2 (human); compound 10.0 µM,83%
same,residual activity,MINK1 (human); compound 1.0 µM,91%
same,residual activity,MINK1 (human); compound 10.0 µM,55%
same,residual activity,MKNK1 (human); compound 0.1 µM,92%
same,residual activity,MKNK1 (human); compound 1.0 µM,100%
same,residual activity,MKNK1 (human); compound 10.0 µM,97%
same,residual activity,MST4 (human); compound 0.1 µM,73%
same,residual activity,MST4 (human); compound 1.0 µM,100%
same,residual activity,MST4 (human); compound 10.0 µM,77%
same,residual activity,NEK2 (human); compound 0.1 µM,91%
same,residual activity,NEK2 (human); compound 1.0 µM,95%
same,residual activity,NEK2 (human); compound 10.0 µM,87%
same,residual activity,NEK6 (human); compound 0.1 µM,84%
same,residual activity,NEK6 (human); compound 1.0 µM,108%
same,residual activity,NEK6 (human); compound 10.0 µM,83%
same,residual activity,NUAK1 (human); compound 1.0 µM,106%
same,residual activity,NUAK1 (human); compound 10.0 µM,78%
same,residual activity,PAK7 (human); compound 0.1 µM,79%
same,residual activity,PAK7 (human); compound 1.0 µM,91%
same,residual activity,PAK7 (human); compound 10.0 µM,72%
same,residual activity,PHKG1 (human); compound 0.1 µM,96%
same,residual activity,PHKG1 (human); compound 1.0 µM,53%
same,residual activity,PHKG1 (human); compound 10.0 µM,14%
same,residual activity,PRKAA1 or PRKAA2 (rat); compound 0.1 µM,83%
same,residual activity,PRKAA1 or PRKAA2 (rat); compound 1.0 µM,88%
same,residual activity,PRKAA1 or PRKAA2 (rat); compound 10.0 µM,60%
same,residual activity,PRKACA (human); compound 0.1 µM,80%
same,residual activity,PRKACA (human); compound 1.0 µM,106%
same,residual activity,PRKACA (human); compound 10.0 µM,84%
same,residual activity,PRKCA (human); compound 0.1 µM,114%
same,residual activity,PRKCA (human); compound 1.0 µM,106%
same,residual activity,PRKCA (human); compound 10.0 µM,80%
same,residual activity,RIPK2 (human); compound 1.0 µM,100%
same,residual activity,RIPK2 (human); compound 10.0 µM,95%
same,residual activity,RPS6KA5 KD1 KD2 (human); compound 0.1 µM,94%
same,residual activity,RPS6KA5 KD1 KD2 (human); compound 1.0 µM,90%
same,residual activity,RPS6KA5 KD1 KD2 (human); compound 10.0 µM,68%
same,residual activity,SRPK1 (human); compound 0.1 µM,94%
same,residual activity,SRPK1 (human); compound 1.0 µM,92%
same,residual activity,SRPK1 (human); compound 10.0 µM,86%
